Legend:
Mec-1 cells = test: Cell growth curves over 12 days, Mec-1; assay type: cell-based; settings: for anti-proliferative potency compared to PRT382: Mec-1
Method: (§1) Live cells/mL were counted on days 3, 6, 10, and 12. […] The split factor was calculated at indicated time points by dividing the counted cells/mL by 3E5. Cell growth was extrapolated over time by multiplying the subsequent cell count by the previous split factor. Cell growth is plotted as fold change relative to DMSO-treated cells.

HG3 cells = test: Cell growth curves over 12 days, HG3; assay type: cell-based; settings: for anti-proliferative potency compared to PRT382: HG3
Method: as §1

Nc1ncnc2c1ccn2[C@@H]1O[C@H]([C@H](O)c2ccccc2)[C@@H](O)[C@H]1O [LLY-283]
Rep 1 Live Cells [Fold Change] (Mec-1 cells; Mec-1, 1 nM, day 0): 1 Fold Change | Rep 2 Live Cells [Fold Change] (Mec-1 cells; Mec-1, 1 nM, day 0): 1 Fold Change | Rep 1 Live Cells [Fold Change] (Mec-1 cells; Mec-1, 1 nM, day 3): 7.4 Fold Change | Rep 2 Live Cells [Fold Change] (Mec-1 cells; Mec-1, 1 nM, day 3): 6.83 Fold Change | Rep 1 Live Cells [Fold Change] (Mec-1 cells; Mec-1, 1 nM, day 6): 50.6 Fold Change | Rep 2 Live Cells [Fold Change] (Mec-1 cells; Mec-1, 1 nM, day 6): 41.9 Fold Change | Rep 1 Live Cells [Fold Change] (Mec-1 cells; Mec-1, 1 nM, day 10): 397 Fold Change | Rep 2 Live Cells [Fold Change] (Mec-1 cells; Mec-1, 1 nM, day 10): 446 Fold Change | Rep 1 Live Cells [Fold Change] (Mec-1 cells; Mec-1, 1 nM, day 12): 1480 Fold Change | Rep 2 Live Cells [Fold Change] (Mec-1 cells; Mec-1, 1 nM, day 12): 1580 Fold Change | Rep 1 Live Cells [Fold Change] (Mec-1 cells; Mec-1, 10 nM, day 0): 1 Fold Change | Rep 2 Live Cells [Fold Change] (Mec-1 cells; Mec-1, 10 nM, day 0): 1 Fold Change | Rep 1 Live Cells [Fold Change] (Mec-1 cells; Mec-1, 10 nM, day 3): 6.77 Fold Change | Rep 2 Live Cells [Fold Change] (Mec-1 cells; Mec-1, 10 nM, day 3): 6.33 Fold Change | Rep 1 Live Cells [Fold Change] (Mec-1 cells; Mec-1, 10 nM, day 6): 30.7 Fold Change | Rep 2 Live Cells [Fold Change] (Mec-1 cells; Mec-1, 10 nM, day 6): 34 Fold Change | Rep 1 Live Cells [Fold Change] (Mec-1 cells; Mec-1, 10 nM, day 10): 156 Fold Change | Rep 2 Live Cells [Fold Change] (Mec-1 cells; Mec-1, 10 nM, day 10): 260 Fold Change | Rep 1 Live Cells [Fold Change] (Mec-1 cells; Mec-1, 10 nM, day 12): 568 Fold Change | Rep 2 Live Cells [Fold Change] (Mec-1 cells; Mec-1, 10 nM, day 12): 278 Fold Change | Rep 1 Live Cells [Fold Change] (Mec-1 cells; Mec-1, 100 nM, day 0): 1 Fold Change | Rep 2 Live Cells [Fold Change] (Mec-1 cells; Mec-1, 100 nM, day 0): 1 Fold Change | Rep 1 Live Cells [Fold Change] (Mec-1 cells; Mec-1, 100 nM, day 3): 4.6 Fold Change | Rep 2 Live Cells [Fold Change] (Mec-1 cells; Mec-1, 100 nM, day 3): 4.47 Fold Change | Rep 1 Live Cells [Fold Change] (Mec-1 cells; Mec-1, 100 nM, day 6): 6.46 Fold Change | Rep 2 Live Cells [Fold Change] (Mec-1 cells; Mec-1, 100 nM, day 6): 5.94 Fold Change | Rep 1 Live Cells [Fold Change] (Mec-1 cells; Mec-1, 100 nM, day 10): 4.1 Fold Change | Rep 2 Live Cells [Fold Change] (Mec-1 cells; Mec-1, 100 nM, day 10): 4.16 Fold Change | Rep 1 Live Cells [Fold Change] (Mec-1 cells; Mec-1, 100 nM, day 12): 2.4 Fold Change | Rep 2 Live Cells [Fold Change] (Mec-1 cells; Mec-1, 100 nM, day 12): 2.8 Fold Change | Rep 1 Live Cells [Fold Change] (Mec-1 cells; Mec-1, 1 µM, day 0): 1 Fold Change | Rep 2 Live Cells [Fold Change] (Mec-1 cells; Mec-1, 1 µM, day 0): 1 Fold Change | Rep 1 Live Cells [Fold Change] (Mec-1 cells; Mec-1, 1 µM, day 3): 3.67 Fold Change | Rep 2 Live Cells [Fold Change] (Mec-1 cells; Mec-1, 1 µM, day 3): 4.57 Fold Change | Rep 1 Live Cells [Fold Change] (Mec-1 cells; Mec-1, 1 µM, day 6): 4.12 Fold Change | Rep 2 Live Cells [Fold Change] (Mec-1 cells; Mec-1, 1 µM, day 6): 5.92 Fold Change | Rep 1 Live Cells [Fold Change] (Mec-1 cells; Mec-1, 1 µM, day 10): 2.43 Fold Change | Rep 2 Live Cells [Fold Change] (Mec-1 cells; Mec-1, 1 µM, day 10): 2.13 Fold Change | Rep 1 Live Cells [Fold Change] (Mec-1 cells; Mec-1, 1 µM, day 12): 1.89 Fold Change | Rep 2 Live Cells [Fold Change] (Mec-1 cells; Mec-1, 1 µM, day 12): 1.46 Fold Change | anti-proliferative potency compared to PRT382 (Mec-1 cells; high doses (1µM)): similar | anti-proliferative potency compared to PRT382 (Mec-1 cells; lower doses (10nM, 100nM)): more potent | Rep 1 Live Cells [Fold Change] (HG3 cells; HG3, 1 nM, day 0): 1 Fold Change | Rep 2 Live Cells [Fold Change] (HG3 cells; HG3, 1 nM, day 0): 1 Fold Change | Rep 1 Live Cells [Fold Change] (HG3 cells; HG3, 1 nM, day 3): 6.4 Fold Change | Rep 2 Live Cells [Fold Change] (HG3 cells; HG3, 1 nM, day 3): 6.4 Fold Change | Rep 1 Live Cells [Fold Change] (HG3 cells; HG3, 1 nM, day 6): 45.44 Fold Change | Rep 2 Live Cells [Fold Change] (HG3 cells; HG3, 1 nM, day 6): 39.4667 Fold Change | Rep 1 Live Cells [Fold Change] (HG3 cells; HG3, 1 nM, day 10): 270.368 Fold Change | Rep 2 Live Cells [Fold Change] (HG3 cells; HG3, 1 nM, day 10): 299.947 Fold Change | Rep 1 Live Cells [Fold Change] (HG3 cells; HG3, 1 nM, day 12): 973.325 Fold Change | Rep 2 Live Cells [Fold Change] (HG3 cells; HG3, 1 nM, day 12): 1379.76 Fold Change | Rep 1 Live Cells [Fold Change] (HG3 cells; HG3, 10 nM, day 0): 1 Fold Change | Rep 2 Live Cells [Fold Change] (HG3 cells; HG3, 10 nM, day 0): 1 Fold Change | Rep 1 Live Cells [Fold Change] (HG3 cells; HG3, 10 nM, day 3): 6.167 Fold Change | Rep 2 Live Cells [Fold Change] (HG3 cells; HG3, 10 nM, day 3): 6.2 Fold Change | Rep 1 Live Cells [Fold Change] (HG3 cells; HG3, 10 nM, day 6): 34.3278 Fold Change | Rep 2 Live Cells [Fold Change] (HG3 cells; HG3, 10 nM, day 6): 39.4733 Fold Change | Rep 1 Live Cells [Fold Change] (HG3 cells; HG3, 10 nM, day 10): 260.891 Fold Change | Rep 2 Live Cells [Fold Change] (HG3 cells; HG3, 10 nM, day 10): 335.523 Fold Change | Rep 1 Live Cells [Fold Change] (HG3 cells; HG3, 10 nM, day 12): 755.715 Fold Change | Rep 2 Live Cells [Fold Change] (HG3 cells; HG3, 10 nM, day 12): 1174.33 Fold Change | Rep 1 Live Cells [Fold Change] (HG3 cells; HG3, 100 nM, day 0): 1 Fold Change | Rep 2 Live Cells [Fold Change] (HG3 cells; HG3, 100 nM, day 0): 1 Fold Change | Rep 1 Live Cells [Fold Change] (HG3 cells; HG3, 100 nM, day 3): 5.133 Fold Change | Rep 2 Live Cells [Fold Change] (HG3 cells; HG3, 100 nM, day 3): 5.6 Fold Change | Rep 1 Live Cells [Fold Change] (HG3 cells; HG3, 100 nM, day 6): 5.048 Fold Change | Rep 2 Live Cells [Fold Change] (HG3 cells; HG3, 100 nM, day 6): 7.691 Fold Change | Rep 1 Live Cells [Fold Change] (HG3 cells; HG3, 100 nM, day 10): 6.991 Fold Change | Rep 2 Live Cells [Fold Change] (HG3 cells; HG3, 100 nM, day 10): 12.0359 Fold Change | Rep 1 Live Cells [Fold Change] (HG3 cells; HG3, 100 nM, day 12): 6.651 Fold Change | Rep 2 Live Cells [Fold Change] (HG3 cells; HG3, 100 nM, day 12): 12.2598 Fold Change | Rep 1 Live Cells [Fold Change] (HG3 cells; HG3, 1 µM, day 0): 1 Fold Change | Rep 2 Live Cells [Fold Change] (HG3 cells; HG3, 1 µM, day 0): 1 Fold Change | Rep 1 Live Cells [Fold Change] (HG3 cells; HG3, 1 µM, day 3): 4.533 Fold Change | Rep 2 Live Cells [Fold Change] (HG3 cells; HG3, 1 µM, day 3): 5.967 Fold Change | Rep 1 Live Cells [Fold Change] (HG3 cells; HG3, 1 µM, day 6): 3.083 Fold Change | Rep 2 Live Cells [Fold Change] (HG3 cells; HG3, 1 µM, day 6): 6.961 Fold Change | Rep 1 Live Cells [Fold Change] (HG3 cells; HG3, 1 µM, day 10): 2.4 Fold Change | Rep 2 Live Cells [Fold Change] (HG3 cells; HG3, 1 µM, day 10): 7.031 Fold Change | Rep 1 Live Cells [Fold Change] (HG3 cells; HG3, 1 µM, day 12): 1.832 Fold Change | Rep 2 Live Cells [Fold Change] (HG3 cells; HG3, 1 µM, day 12): 4.873 Fold Change | anti-proliferative potency compared to PRT382 (HG3 cells; high doses (1µM)): similar | anti-proliferative potency compared to PRT382 (HG3 cells; lower doses (10nM, 100nM)): more potent

— PMC9823097, “Dysregulation of PRMT5 in chronic lymphocytic leukemia promotes progression with high risk of Richter’s transformation” (Nature Communications, 2023)
